Results on 16 molecules are retold here after ChEMBL document CHEMBL6092161, “First fragment-based screening identifies new chemotypes inhibiting ERAP1-metalloprotease” (Eur J Med Chem, 2024).

Assay [1] relates to Insulin-regulated aminopeptidase (Homo sapiens). Briefly: Inhibition of recombinant human IRAP at 300 uM using L-AMC as substrate preincubated for 30 mins followed by substrate addition and measured after 1 hr by fluorescence based assay. The note with it: time 90.0 min.
Assay [2] concerns the target Endoplasmic reticulum aminopeptidase 2 (Homo sapiens) (UniProt Q6P179). Put plainly: Inhibition of recombinant human ERAP2 at 300 uM using R-AMC as substrate preincubated for 30 mins followed by substrate addition and measured after 1 hr by fluorescence based assay relative to control. The note with it: time 90.0 min.
For assay [3], the target named is T1, Endoplasmic reticulum aminopeptidase 1 (Homo sapiens, UniProt Q9NZ08). Briefly: Inhibition of recombinant human ERAP1 using L-AMC as substrate preincubated for 30 mins followed by substrate addition and measured after 1 hr by fluorescence based assay.
Assay [4] concerns the target T1, Endoplasmic reticulum aminopeptidase 1. Put plainly: Inhibition of human ERAP1 using L-SIINFEKL as substrate by LC-MS/MS method.
The target is the same in assay [5]. Briefly: Inhibition of recombinant human ERAP1 using L-AMC as substrate at 4 uM preincubated for 30 mins followed by substrate addition and measured after 1 hr by fluorescence based assay relative to control. The note with it: time 90.0 min.
Assay [6] has the same target. Briefly: Inhibition of recombinant human ERAP1 using L-AMC as substrate at 90 uM preincubated for 30 mins followed by substrate addition and measured after 1 hr by fluorescence based assay relative to control. The note with it: time 90.0 min.
The target of assay [7] is Endoplasmic reticulum aminopeptidase 2 (Homo sapiens) (UniProt Q6P179). Briefly: Inhibition of recombinant human ERAP2 at 90 uM using R-AMC as substrate preincubated for 30 mins followed by substrate addition and measured after 1 hr by fluorescence based assay relative to control. The note with it: time 90.0 min.

pIC50: −log10 of the molar value.

Chain of Endoplasmic reticulum aminopeptidase 2 (Homo sapiens) (Q6P179 whole entry): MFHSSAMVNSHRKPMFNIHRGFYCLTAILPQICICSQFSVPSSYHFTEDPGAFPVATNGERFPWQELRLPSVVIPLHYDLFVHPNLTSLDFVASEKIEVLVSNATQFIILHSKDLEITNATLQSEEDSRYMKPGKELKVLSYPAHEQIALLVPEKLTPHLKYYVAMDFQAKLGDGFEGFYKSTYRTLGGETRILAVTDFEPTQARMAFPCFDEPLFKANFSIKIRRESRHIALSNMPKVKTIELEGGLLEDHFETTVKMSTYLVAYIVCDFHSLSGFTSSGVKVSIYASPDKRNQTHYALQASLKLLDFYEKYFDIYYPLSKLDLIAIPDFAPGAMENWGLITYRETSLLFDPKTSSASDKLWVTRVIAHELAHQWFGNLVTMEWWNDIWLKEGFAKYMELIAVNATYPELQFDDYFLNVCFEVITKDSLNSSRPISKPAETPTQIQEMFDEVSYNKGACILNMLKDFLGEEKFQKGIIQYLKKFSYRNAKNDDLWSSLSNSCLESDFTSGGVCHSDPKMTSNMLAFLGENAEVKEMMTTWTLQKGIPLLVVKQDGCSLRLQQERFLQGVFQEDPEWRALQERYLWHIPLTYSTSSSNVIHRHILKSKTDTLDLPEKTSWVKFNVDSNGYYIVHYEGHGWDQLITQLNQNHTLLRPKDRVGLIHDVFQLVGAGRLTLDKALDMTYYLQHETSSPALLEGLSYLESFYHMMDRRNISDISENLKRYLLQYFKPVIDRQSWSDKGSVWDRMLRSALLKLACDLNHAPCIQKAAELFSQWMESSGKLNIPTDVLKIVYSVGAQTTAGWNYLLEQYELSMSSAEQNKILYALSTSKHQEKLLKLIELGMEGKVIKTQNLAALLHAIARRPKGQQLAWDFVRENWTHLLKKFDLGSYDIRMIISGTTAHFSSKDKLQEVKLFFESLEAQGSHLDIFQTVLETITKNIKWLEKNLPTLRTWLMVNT
T1 sequence (Q9NZ08 whole entry): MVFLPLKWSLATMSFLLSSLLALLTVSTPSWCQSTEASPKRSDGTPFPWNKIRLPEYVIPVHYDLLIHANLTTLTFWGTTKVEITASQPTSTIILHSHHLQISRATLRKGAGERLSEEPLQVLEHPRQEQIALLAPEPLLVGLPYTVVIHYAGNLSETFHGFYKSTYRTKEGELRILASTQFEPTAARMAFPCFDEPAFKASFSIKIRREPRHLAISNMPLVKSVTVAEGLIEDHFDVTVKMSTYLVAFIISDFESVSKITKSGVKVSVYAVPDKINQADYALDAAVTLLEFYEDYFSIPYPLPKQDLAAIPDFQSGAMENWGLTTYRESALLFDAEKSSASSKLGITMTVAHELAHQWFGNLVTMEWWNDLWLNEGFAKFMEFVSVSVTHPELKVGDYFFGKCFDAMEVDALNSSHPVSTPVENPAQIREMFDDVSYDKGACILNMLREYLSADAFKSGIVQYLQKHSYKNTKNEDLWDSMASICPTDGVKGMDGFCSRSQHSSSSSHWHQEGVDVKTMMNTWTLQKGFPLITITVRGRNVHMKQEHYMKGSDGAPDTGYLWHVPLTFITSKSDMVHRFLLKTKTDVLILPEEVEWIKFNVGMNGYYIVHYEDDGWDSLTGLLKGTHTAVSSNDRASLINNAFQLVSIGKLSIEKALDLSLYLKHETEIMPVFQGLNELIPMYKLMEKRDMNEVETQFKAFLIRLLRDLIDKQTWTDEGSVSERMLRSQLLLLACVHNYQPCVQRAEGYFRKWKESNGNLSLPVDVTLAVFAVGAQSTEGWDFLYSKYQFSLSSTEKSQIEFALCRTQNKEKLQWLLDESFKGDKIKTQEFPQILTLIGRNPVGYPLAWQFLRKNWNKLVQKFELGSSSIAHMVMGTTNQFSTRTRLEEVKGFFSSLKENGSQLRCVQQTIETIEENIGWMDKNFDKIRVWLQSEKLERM

Consider `CN1C(=O)/C(=C/c2ccc(C(=O)O)cc2)SC1=S`, for which the inhibition – broadly, how much of the control response was suppressed – in assay [1] came to 51%; in assay [2], 43%.

`O=C1NC(=O)/C(=C/c2ccc(C(=O)O)cc2)N1`: the inhibition in assay [1] is 30%.

As for `CN1C(=O)S/C(=C\c2ccc(C(=O)O)cc2)C1=O`, the inhibition in assay [1] was 47%.

Take `O=C(O)c1ccc(CC2SC(=S)NC2=O)cc1` (centres undefined): the inhibition in assay [1] and in assay [2] was less than 30% each time.

Take `O=c1[nH]c(=S)[nH]c(O)c1-c1ccccc1`: in assay [3], the pIC50 (in general, the negative decadic logarithm of the IC50, by convention in mol/L) was 4.08.

For the molecule `Nc1[nH]cnc2nc(S)nc1-2`, the pIC50 was 4.99 in assay [4] and 5.66 in assay [3].

Consider `O=C(O)Cc1cccc(S(=O)(=O)N2CCCC2)c1`, for which the inhibition in assay [1] was less than 30%.

As for `COC(=O)c1ccc(CC2SC(=S)NC2=O)cc1` (centres undefined), the inhibition in assay [1] is less than 30%.

As to `COc1ccc(Cc2c(O)nc(S)nc2O)cc1`, in assay [3], the pIC50 was 4.23.

In the case of `CC(C)C[C@H](NC(=O)[C@@H](O)[C@H](N)Cc1ccccc1)C(=O)O`, the inhibition in assay [5] is 100%; in assay [6], 100%; in assay [7] it was 50%.

For `O=C1NC(=O)/C(=C/c2ccc(C(=O)O)cc2)S1`, in assay [1], the inhibition was determined as 38%.

With `COC(=O)c1ccc(/C=C2\SC(=S)NC2=O)cc1`, in assay [1], the inhibition is less than 30%.

Consider `O=C(O)Cc1ccc(S(=O)(=O)N2CCCC2)s1`, for which the pIC50 in assay [3] is 4.57. Besides, in assay [1], the inhibition was 62%.

For `O=C1NC(=S)S/C1=C\c1ccc(C(=O)O)cc1`, the negative logarithm of the IC50 (pIC50) was 4.54 in assay [4] and 4.71 in assay [3].

On to `O=C1NC(=O)C(Cc2ccc(C(=O)O)cc2)S1` (centres undefined), for which, in assay [1], the inhibition amounted to 30%.

In the case of `O=C(O)Cc1ccc(S(=O)(=O)N2CCCCC2)s1`, the inhibition in assay [1] is 58%; in assay [2] it was 38%.
